Source: ChEMBL document CHEMBL4177754, “Targeting Tyrosinase: Development and Structural Insights of Novel Inhibitors Bearing Arylpiperidine and Arylpiperazine Fragments” (J Med Chem, 2018)
Calls of active or inactive are those of the source. The calls are words filed in the database; no cut-off is given here.

Columns and labels:
Tyrosinase = target: T1, Tyrosinase (Agaricus bisporus, UniProt O42713); test: Inhibition of mushroom tyrosinase diphenolase activity using L-DOPA as substrate preincubated with substrate for 10 mins followed by protein addition measured after 5 mins by spectrophotometric method
T1 sequence (O42713 whole entry): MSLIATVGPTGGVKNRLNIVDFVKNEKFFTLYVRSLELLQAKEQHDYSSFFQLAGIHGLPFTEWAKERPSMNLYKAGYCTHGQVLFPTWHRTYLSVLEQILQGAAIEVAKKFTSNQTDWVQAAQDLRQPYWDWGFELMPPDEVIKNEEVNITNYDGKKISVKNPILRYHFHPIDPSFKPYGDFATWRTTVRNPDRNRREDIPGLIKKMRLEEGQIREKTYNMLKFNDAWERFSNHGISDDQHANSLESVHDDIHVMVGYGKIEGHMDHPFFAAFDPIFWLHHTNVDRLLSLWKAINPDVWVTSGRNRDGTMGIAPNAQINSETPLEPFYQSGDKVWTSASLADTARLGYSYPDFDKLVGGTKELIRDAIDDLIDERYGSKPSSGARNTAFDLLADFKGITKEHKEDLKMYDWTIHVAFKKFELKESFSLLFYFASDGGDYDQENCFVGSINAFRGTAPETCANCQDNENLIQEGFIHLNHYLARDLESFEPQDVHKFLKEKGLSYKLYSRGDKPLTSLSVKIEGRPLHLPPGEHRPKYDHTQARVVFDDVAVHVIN

[1] = target: T2, Tyrosinase (Agaricus bisporus) (UniProt O42713); test: Non-competitive inhibition of mushroom tyrosinase diphenolase activity at 2 to 8 uM using L-DOPA as substrate preincubated with substrate for 30 mins followed by protein addition measured after 5 mins by Lineweaver-Burk double-reciprocal plot analysis
T2 sequence (whole entry): T1 sequence (O42713 whole entry)

| SMILES | IC50 (Tyrosinase) [µM] | inhibition [1] |
| --- | --- | --- |
| O=C(c1cccc(F)c1)N1CCN(Cc2ccc(F)cc2)CC1 | 54.7 |  |
| CC(C)C(=O)N1CCC(Cc2ccc(F)cc2)CC1 | 35.3 |  |
| Cc1ccccc1C(=O)N1CCN(Cc2ccc(F)cc2)CC1 | 5.25 |  |
| O=C(c1ccccc1F)N1CCN(Cc2ccc(F)cc2)CC1 | 3.75 |  |
| CC(=O)N1CCC(Cc2ccc(F)cc2)CC1 | 25.1 |  |
| COc1cccc(C(=O)N2CCN(Cc3ccc(F)cc3)CC2)c1 | 27 |  |
| O=C(c1ccc(F)cc1)N1CCN(Cc2ccc(F)cc2)CC1 | 7.77 |  |
| O=C(c1cccc(O)c1)N1CCN(Cc2ccc(F)cc2)CC1 | 12.6 |  |
| O=C(c1ccccc1)N1CCN(Cc2ccc(F)cc2)CC1 | 13.3 |  |
| O=C(c1ccc(O)cc1)N1CCN(Cc2ccc(F)cc2)CC1 | 27.4 |  |
| COc1ccc(C(=O)N2CCN(Cc3ccc(F)cc3)CC2)cc1 | 9.14 |  |
| CC(C)C(=O)N1CCN(Cc2ccc(F)cc2)CC1 | 30.9 |  |
| Cc1ccc(C(=O)N2CCN(Cc3ccc(F)cc3)CC2)cc1 | 33.1 |  |
| CCC(=O)N1CCC(Cc2ccc(F)cc2)CC1 | 24.1 |  |
| O=C(c1ccccc1O)N1CCN(Cc2ccc(F)cc2)CC1 | 7.06 |  |
| COc1ccccc1C(=O)N1CCN(Cc2ccc(F)cc2)CC1 | 2.03 | Active |
| Cc1cccc(C(=O)N2CCN(Cc3ccc(F)cc3)CC2)c1 | 174 |  |
| CCC(=O)N1CCN(Cc2ccc(F)cc2)CC1 | 51.1 |  |
| Fc1ccc(CN2CCNCC2)cc1 | 85.5 |  |
| O=C(c1ccccc1)N1CCC(Cc2ccc(F)cc2)CC1 | 19.5 |  |
| CC(=O)N1CCN(Cc2ccc(F)cc2)CC1 | 45.9 |  |
